We go through one compound from publication PMC8541575, “Optimization and Development of Selective Histone Deacetylase Inhibitor (MPT0B291)-Loaded Albumin Nanoparticles for Anticancer Therapy” (Pharmaceutics, 2021).

Data set [1] deals with healthy Balb/c female mice. Put plainly: Maximum tolerated dose, single i.v. dose. It is filed as in vivo. The method, then: The single-dose study was conducted using healthy female mice with four animals per group.
Data set [2] in a line: In vitro drug release by dialysis bag. As to conditions: 0.25 mg/mL in propylene glycol, pH 7.4 phosphate buffer with 1% Tween 80, 37 °C. Type of data set: physicochemical. The protocol: The dialysis bag was subsequently placed into 25 mL of release medium (PBS) containing 1% v/v Tween 80. The temperature was maintained at 37.0 ± 0.5 °C, and the medium was stirred at a speed of 100 rpm. MPT0B291 which had been dissolved in propylene glycol (free MPT0B291; 0.25 mg/mL) was used as a control and was treated in the same manner. During a period of 48 h, the surrounding environment was maintained by replacing 2 mL of the release medium with an equal volume of fresh medium at regular intervals. The extraction solution was solubilized in 500 μL of acetonitrile and assayed by HPLC.

In the next data set the test system is MIA PaCa-2 cells. Description: Cell viability (MTT) assay. To be noted: Homo sapiens, 24 h of exposure, read-out: 50% inhibitory concentration (IC50). It is filed as cell-based. The method, then: Briefly, MIA PaCa-2 cells were seeded (5 × 10^3 cells/well) in 96-well culture plates. After 24 h of incubation in a humidified incubator at 37 °C with 5% CO2, the medium of adherent cells was replaced with serum-free culture medium and incubated with 200 μL of serial dilutions of HSA-NPs (0.01~1000 μg/mL) and MPT0B291-HSAX NPs ([…]). After another 24 h, 100 µL of MTT (500 μg/mL in PBS, pH 7.4) was added and incubated at 37 °C for 2 h. The medium was then removed, and 100 µL of DMSO was added to each well to dissolve the crystals. The optical density (OD) was measured at 540 nm using a microplate reader (Cytation™ 3 Cell Imaging Multi-Mode Reader, BioTek, Winooski, VT, USA). The cell survival rate was calculated as follows:(3) Cell survival rate (%)=Absorbance value of test solution group /Absorbance value of blank solution group ×100%

Data set [3] can be described thus: In vivo pharmacokinetic study after intravenous administration. As to conditions: male, Sprague-Dawley, rat, plasma, rats, i.v., 5 mg/kg body weight, mean ± SD (n = 4). The method, then: Male Sprague-Dawley rats (250 ± 15 g) were divided into two groups (with four rats per group). […] All collected blood samples were centrifuged at 4000 rpm and 4 °C for 10 min, and supernatant plasma samples were obtained and frozen at -80 °C for further analysis. Quantitative analysis of MPT0B291 in rat plasma by an ultra-precision liquid chromatographic tandem mass spectroscopic (UPLC-MS/MS) method was performed using an Agilent 1290 Infinity II LC System (Agilent, Wilmington, DE, USA) coupled with an Agilent 6470 triple quadrupole LC/MS system (Agilent Technologies, Santa Clara, CA, USA). Optimized chromatographic separation of MPT0B291 was conducted with an ACQUITY UPLC BEH C18 column (1.7 μm, 2.1 × 100 mm; Waters, Milford, MA, USA) at an oven temperature of 40 °C. The mobile phase was 0.1% (v/v) formic acid in water (mobile phase A) and acetonitrile containing 0.1% (v/v) formic acid (mobile phase B) with gradient elution at a flow rate of 0.3 mL/min. All analytical procedures were evaluated with positive electrospray ionization (ESI). The LC gradient was programmed in linear steps as follows: 0~0.5 min, 5% mobile phase B (v/v); 0.5~1 min, 5% mobile phase B to 100% mobile phase B (v/v); 1~2.8 min, 100% mobile phase B; 2.8~3 min, 100% mobile phase B to 5% mobile phase B (v/v); and 3~4 min, 5% mobile phase B (v/v). Quantification was achieved using the multiple reaction monitoring (MRM) mode at m/z 344.1 → 91.0 for MPT0B291. The following PK parameters were determined: the area under the concentration-time curve (AUC), maximum peak concentration (Cmax), time of maximum peak concentration (Tmax), and mean residence time (MRT). These parameters were determined by DAS software vers. 2.0. All data are presented as mean ± standard deviation (SD).

The AUC(0-inf) is the area under the concentration-time curve extrapolated to infinity. A word on the clearance: it is a measure of how efficiently the substance is removed, as volume per time. The MRT is the average time that molecules of a dose stay in the body.

Take `O=C(/C=C/c1cccc(S(=O)(=O)n2ccc3cccnc32)c1)NO` [MPT0B291]: the “Mortality after single i.v. dose of 150 mg/kg BW” value in data set [1] (n = 4) is “one mouse was found dead after 24 h and another one also died on the following day”. Moreover, the “Maximum tolerated dose (MTD)” value in data set [1] (single dose, i.v. route) was “approximately 75 mg/kg BW”. In addition, in data set [2], the “Drug released within 1 h” value worked out at 60% and the “Drug released within 8 h” value was around 100%. The IC50 in the data set with MIA PaCa-2 cells stood at 4.71 µM. Moreover, the area under the curve AUC(0-inf) in data set [3] worked out at 293 ± 39.2 ng·h/mL. The AUC(0-t) in data set [3] (read-out: AUC0–24h) was 291 ± 39.7 ng·h/mL. Also, the clearance in data set [3] (read-out: CL (clearance)) was determined as 288 ± 36.7 mL/min/kg. Besides, the MRT in data set [3] (read-out: MRT (mean residence time)) came out at 1.86 ± 0.66 h. Further, the Vd in data set [3] (read-out: Vss (volume of distribution at steady state)) stood at 32.6 ± 12.3 L/kg. For the same compound, in data set [3] (read-out: t1/2 (elimination half-life) (converted)), the half-life was 124 ± 38.4 min.
